Measured values from patent publication US11377442B2, “Small molecule agonists and antagonists of NR2F6 activity” (ZANDER THERAPEUTICS, INC., priority 2016, dated 2022).
Like-named read-outs stand apart in the source and are kept apart here.

How the values were obtained:
Assay type in all cases: cell-based
[1] = molecular target: T1, ERα (Homo sapiens, UniProt P03372); test: Counterscreening, Firefly signal with ERα transient transfection (Firefly_ERa); conditions: ERα transient transfection, 10 μM
T1 construct: expressed in transfected cells
T1 sequence (P03372 1-595): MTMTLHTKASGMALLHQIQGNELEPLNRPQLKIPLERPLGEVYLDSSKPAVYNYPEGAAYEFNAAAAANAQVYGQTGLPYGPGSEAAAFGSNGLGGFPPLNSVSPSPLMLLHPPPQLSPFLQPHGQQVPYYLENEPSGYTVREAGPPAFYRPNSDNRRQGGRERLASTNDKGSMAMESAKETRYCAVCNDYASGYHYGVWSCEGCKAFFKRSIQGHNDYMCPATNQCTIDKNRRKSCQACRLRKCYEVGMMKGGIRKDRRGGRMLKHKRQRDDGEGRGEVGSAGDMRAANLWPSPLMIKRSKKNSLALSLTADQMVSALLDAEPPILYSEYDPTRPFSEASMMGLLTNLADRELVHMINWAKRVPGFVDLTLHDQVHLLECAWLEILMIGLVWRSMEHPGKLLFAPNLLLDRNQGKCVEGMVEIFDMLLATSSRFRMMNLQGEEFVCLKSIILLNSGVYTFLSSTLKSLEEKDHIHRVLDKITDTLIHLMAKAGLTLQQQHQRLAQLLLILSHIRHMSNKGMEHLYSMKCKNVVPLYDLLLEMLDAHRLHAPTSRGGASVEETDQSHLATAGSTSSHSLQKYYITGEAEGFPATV
Experimental: The methodology for screening candidate compounds as NR2F6 agonists was as follows: For primary screening, hit criteria was ACT %>DMSO control+5*SD (DSO control) at 10 μM, or any compound with S/B>2. For rescreening, hit criteria was ACT %>DMSO control+3*SD (DSO control) in each replicate at 10 μM. For counterscreening, hit criteria was mean ACT<DMSO control+3*SD (DMSO control) with ERα transient transfection in duplicate at 10 μM.

[2] = test system: Renilla; test: Renilla signal in NR2F6 agonist screening, cmpd/DMSO; conditions: first set screening, 10 μM; for fold induction at 10 µM: Renilla
[3] = molecular target: T2, NR2F6 (Homo sapiens, UniProt P10588); test: NR2F6 agonist screening, Firefly signal cmpd/DMSO; conditions: first set screening, 10 μM
T2 construct: expressed in transfected cells; also transient transfection
T2 sequence (P10588 1-404): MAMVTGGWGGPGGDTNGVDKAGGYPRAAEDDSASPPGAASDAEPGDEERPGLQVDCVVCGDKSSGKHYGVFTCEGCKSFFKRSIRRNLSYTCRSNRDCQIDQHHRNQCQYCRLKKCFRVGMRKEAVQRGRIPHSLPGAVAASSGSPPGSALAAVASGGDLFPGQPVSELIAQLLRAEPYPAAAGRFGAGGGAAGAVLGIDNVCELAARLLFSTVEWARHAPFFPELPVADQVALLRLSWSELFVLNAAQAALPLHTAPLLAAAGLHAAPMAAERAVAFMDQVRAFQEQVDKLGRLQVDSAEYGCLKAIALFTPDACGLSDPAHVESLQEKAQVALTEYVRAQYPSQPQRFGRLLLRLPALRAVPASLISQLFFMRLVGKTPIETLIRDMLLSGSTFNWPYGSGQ

[4] = test system: Renilla_ERa; test: Renilla signal in ERα counterscreen (Renilla_ERa); conditions: ERα transient transfection, 10 μM
[5] = repeat 1, read-out: Renilla, cmpd/DMSO repeat 1
[6] = repeat 2, read-out: Renilla, cmpd/DMSO repeat 2
[7] = repeat 1, read-out: Renilla_ERa, cmpd/DMSO repeat 1
[8] = repeat 2, read-out: Renilla_ERa, cmpd/DMSO repeat 2

## CCn1c(=O)c2cc(C(=O)Nc3ccc4c(C)cc(=O)oc4c3)sc2c2ccccc21 [Compound C16]
[1]
  Firefly_ERa, cmpd/DMSO repeat 1: 1.0
  Firefly_ERa, cmpd/DMSO repeat 2: 0.9
[2]; [5]
  fold induction at 10 µM: 3.9
[2]; [6]
  fold induction at 10 µM: 3.2
[3]
  Firefly, cmpd/DMSO repeat 1: 2.7
  Firefly, cmpd/DMSO repeat 2: 2.3
[4]; [7]
  fold induction at 10 µM: 0.9
[4]; [8]
  fold induction at 10 µM: 1.1

## COCCNC(=O)c1ccc2c(c1)N=C(C)c1cc(C)ccc1S2 [Compound C8]
[1]
  Firefly_ERa, cmpd/DMSO repeat 1: 1.2
  Firefly_ERa, cmpd/DMSO repeat 2: 1.2
[2]; [5]
  fold induction at 10 µM: 3.4
[2]; [6]
  fold induction at 10 µM: 3.1
[3]
  Firefly, cmpd/DMSO repeat 1: 2.1
  Firefly, cmpd/DMSO repeat 2: 2.8
[4]; [7]
  fold induction at 10 µM: 1
[4]; [8]
  fold induction at 10 µM: 1.1

## CCc1ccc(OCC(=O)Nc2cc(-c3nc4cc(C)ccc4o3)ccc2C)cc1 [Compound 24]
[1]
  Firefly_ERa, cmpd/DMSO repeat 1: 1.3
  Firefly_ERa, cmpd/DMSO repeat 2: 1.6
[2]; repeat 1
  Renilla, cmpd/DMSO repeat 1: 2.4
[2]; repeat 2
  Renilla, cmpd/DMSO repeat 2: 2.2
[3]
  Firefly, cmpd/DMSO repeat 1: 2.0
  Firefly, cmpd/DMSO repeat 2: 2.3
[4]; repeat 1
  Renilla_ERa, cmpd/DMSO repeat 1: 0.9
[4]; repeat 2
  Renilla_ERa, cmpd/DMSO repeat 2: 1.0
